Patent US20230203081A1, “LINCOSAMIDE ANTIBIOTICS AND USES THEREOF” (President and Fellows of Harvard College, priority 2020, published 2023)
Converted amounts (≈) assume the structure as drawn.

Assays:
Format in all cases: cell-based
E. coli armA = experiment: microbe, parasite or virus in culture; settings: Escherichia coli, E. coli HAV#056; Clinical, armA
Method in brief: (§1)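 Isolates other than streptococci and anaerobes, which had their own procedures, were grown overnight at 35° C on tryptic soy agar with 5% sheep blood. Suspensions were then diluted to a final inoculum of 5×10^5 CFU/mL in broth microdilution wells.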

E. coli ΔTolC = experiment: microbe, parasite or virus in culture; settings: Escherichia coli, E. coli HAV#038; ΔTolC
Method in brief: as §1

S. aureus BAA 977 iErmA = experiment: microbe, parasite or virus in culture; settings: Staphylococcus aureus, BAA-977 / MRSA
Method in brief: as §1

S. aureus MP-549 msrA = experiment: microbe, parasite or virus in culture; settings: Staphylococcus aureus, MP549MSRA; S. aureus HAV#032, MP-549; MSR(A); read-out: MIC
Method in brief: as §1

[1] = test system: broad panel of different clinical isolates; experiment: microbe, parasite or virus in culture
Method in brief: as §1

E. coli LptD = experiment: MIC (broth microdilution or agar dilution, CLSI); settings: Escherichia coli, E. coli HAV#040; LptD; read-out: MIC
Method in brief: as §1

E. faecalis ATCC 29212 = experiment: MIC (broth microdilution or agar dilution, CLSI); settings: Enterococcus faecalis, ATCC29212, E. faecalis HAV#005, ATCC 29212; read-out: MIC
Method in brief: as §1

[2] = test system: E. faecalis MMX 847; cErmB; experiment: MIC (broth microdilution or agar dilution, CLSI); settings: Enterococcus faecalis; E. faecalis HAV#036, MMX 847; mac-resistant, cErmB; read-out: MIC
Method in brief: as §1

K. pneumoniae ATCC 10031 = experiment: MIC (broth microdilution or agar dilution, CLSI); settings: Klebsiella pneumoniae, ATCC10031, K. pneumoniae HAV#008, ATCC 10031; read-out: MIC
Method in brief: as §1

S. aureus ATCC 29213 = experiment: MIC (broth microdilution or agar dilution, CLSI); settings: Staphylococcus aureus, ATCC29213, S. aureus HAV#001, ATCC 29213, MP-549; read-out: MIC
Method in brief: as §1

S. aureus ATCC 700699 = experiment: MIC (broth microdilution or agar dilution, CLSI); settings: Staphylococcus aureus; S. aureus HAV#202, ATCC 700699 (VISA); read-out: MIC
Method in brief: as §1

[3] = test system: S. aureus ATCC BAA-1707 (MRSA); experiment: MIC (broth microdilution or agar dilution, CLSI); settings: Staphylococcus aureus; S. aureus HAV#016, ATCC BAA-1707; MRSA; read-out: MIC
Method in brief: as §1

S. aureus MMX 3035 cErmA = experiment: MIC (broth microdilution or agar dilution, CLSI); settings: Staphylococcus aureus, MMX3035CERMA; S. aureus HAV#031, MMX 3035; cErmA; read-out: MIC
Method in brief: as §1

S. aureus hVISA = experiment: MIC (broth microdilution or agar dilution, CLSI); settings: Staphylococcus aureus; S. aureus HAV#204, hVISA; read-out: MIC
Method in brief: as §1

S. pneumoniae ATCC 49619 = experiment: MIC (broth microdilution or agar dilution, CLSI); settings: Streptococcus pneumoniae, ATCC49619
Method in brief: as §1

S. pneumoniae ATCC 6303 = experiment: MIC (broth microdilution or agar dilution, CLSI); settings: Streptococcus pneumoniae, ATCC6303; S. pneumoniae HAV#351, ATCC 6303; read-out: MIC
Method in brief: as §1

[4] = test system: S. pneumoniae MMX 3028 cErmB; experiment: MIC (broth microdilution or agar dilution, CLSI); settings: Streptococcus pneumoniae, MMX3028CERMB; S. pneumoniae HAV#033; MMX 3028, cErmB; read-out: MIC
Method in brief: as §1

[5] = test system: S. pneumoniae MMX 3031 cMefA; experiment: MIC (broth microdilution or agar dilution, CLSI); settings: Streptococcus pneumoniae, MMX3031CMEFA, S. pneumoniae HAV#034; MMX 3031, cMefA; read-out: MIC
Method in brief: as §1

[6] = test system: S. pyogenes MMX 946; cErmB; experiment: MIC (broth microdilution or agar dilution, CLSI); settings: Streptococcus pyogenes; S. pyogenes HAV#035, MMX 946; cErmB, mac-resistant; read-out: MIC
Method in brief: as §1

## CC[C@H]1OC(=O)[C@H](C)[C@@H](O[C@H]2C[C@@](C)(OC)[C@@H](O)[C@H](C)O2)[C@H](C)[C@@H](O[C@@H]2O[C@H](C)C[C@H](N(C)C)[C@H]2O)[C@](C)(O)C[C@@H](C)CN(C)[C@H](C)[C@@H](O)[C@]1(C)O [Azithromycin]
E. coli armA
  MIC: 4 µg/mL (≈ 5.34 µM)
E. coli ΔTolC
  MIC: 1 µg/mL (≈ 1.34 µM)
S. aureus BAA 977 iErmA
  MIC: > 64 µg/mL
S. aureus MP-549 msrA
  MIC: > 64 µg/mL
[1]; Enterococcus faecalis, E. faecalis HAV#602, Clincal
  MIC: 4 µg/mL (≈ 5.34 µM)
[1]; Enterococcus faecalis, E. faecalis HAV#607, Clinical
  MIC: > 128 µg/mL
[1]; Enterococcus faecalis, E. faecalis HAV#608, Clinical
  MIC: > 128 µg/mL
[1]; Enterococcus faecalis, E. faecalis HAV#609, Clinical
  MIC: > 128 µg/mL
[1]; Enterococcus faecalis, E. faecalis HAV#610, Clinical
  MIC: > 128 µg/mL
[1]; Enterococcus faecalis, S. faecalis 5060, Line R & Vanco R
  MIC: > 256 µg/mL
[1]; Enterococcus faecalis, S. faecalis 5074, Line R
  MIC: 4 µg/mL (≈ 5.34 µM)
[1]; Enterococcus faecalis, VRE, E. faecalis HAV#251, Clinical VRE
  MIC: > 64 µg/mL
[1]; Enterococcus faecalis, VRE, E. faecalis HAV#606, Clinical
  MIC: > 128 µg/mL
[1]; Enterococcus faecium, E. faecium HAV#317, Clinical
  MIC: 8 µg/mL (≈ 10.7 µM)
[1]; Enterococcus faecium, E. faecium HAV#324, Clinical
  MIC: > 128 µg/mL
[1]; Enterococcus faecium, E. faecium HAV#327, Clinical
  MIC: > 128 µg/mL
[1]; Enterococcus faecium, E. faecium HAV#328, Clinical
  MIC: > 128 µg/mL
[1]; Enterococcus faecium, E. faecium HAV#329, Clinical
  MIC: > 128 µg/mL
[1]; Enterococcus faecium, VRE, E. faecium HAV#318, VanA
  MIC: > 64 µg/mL
[1]; Enterococcus faecium, VRE, E. faecium HAV#320, Clinical
  MIC: > 128 µg/mL
[1]; Escherichia coli, E. coli HAV#501, Clinical
  MIC: 64 µg/mL (≈ 85.4 µM)
[1]; Escherichia coli, E. coli HAV#503, Clinical
  MIC: 8 µg/mL (≈ 10.7 µM)
[1]; Escherichia coli, E. coli HAV#511, Clinical
  MIC: 4 µg/mL (≈ 5.34 µM)
[1]; Escherichia coli, E. coli HAV#512, Clinical
  MIC: 8 µg/mL (≈ 10.7 µM)
[1]; Escherichia coli, E. coli HAV#513, Clinical
  MIC: 8 µg/mL (≈ 10.7 µM)
[1]; Escherichia coli, E. coli HAV#514, Clinical
  MIC: 8 µg/mL (≈ 10.7 µM)
[1]; Escherichia coli, E. coli HAV#516, ESBL-producing
  MIC: 4 µg/mL (≈ 5.34 µM)
[1]; Haemophilus influenzae, ATCC9007, H. influenzae HAV#376, ATCC-9007
  MIC: 2 µg/mL (≈ 2.67 µM)
[1]; Klebsiella pneumoniae, K. pneumoniae HAV#041, Clinical, KPC
  MIC: > 64 µg/mL
[1]; Klebsiella pneumoniae, K. pneumoniae HAV#404, Clinical
  MIC: 8 µg/mL (≈ 10.7 µM)
[1]; Klebsiella pneumoniae, K. pneumoniae HAV#405, Clinical
  MIC: 8 µg/mL (≈ 10.7 µM)
[1]; Staphylococcus aureus, MRSA, S. aureus HAV#017, MRSA Col(Colindale, England)
  MIC: 1 µg/mL (≈ 1.34 µM)
[1]; Staphylococcus aureus, MRSA, S. aureus HAV#218, Line R
  MIC: > 64 µg/mL
[1]; Staphylococcus aureus, MRSA, S. aureus HAV#220, Line R
  MIC: > 64 µg/mL
[1]; Staphylococcus aureus, MSSA, S. aureus HAV#219, Line R
  MIC: > 64 µg/mL
[1]; Staphylococcus aureus, S. aureus HAV#051, mecA, norA, spcl, ermA, aad1, aac6′-aph2″
  MIC: 2 µg/mL (≈ 2.67 µM)
[1]; Staphylococcus aureus, S. aureus HAV#052, mecA, norA, fosB, blaZ
  MIC: 2 µg/mL (≈ 2.67 µM)
[1]; Staphylococcus aureus, S. aureus HAV#053 mecA, norA, fosB
  MIC: 2 µg/mL (≈ 2.67 µM)
[1]; Staphylococcus aureus, S. aureus HAV#054, mecA, norA, spcl, aad1, fosB, ermA, aac6′-aph2″, blaZ
  MIC: > 256 µg/mL
[1]; Staphylococcus aureus, S. aureus HAV#211, Clinical
  MIC: > 64 µg/mL
[1]; Staphylococcus aureus, S. aureus HAV#212, Clinical
  MIC: 1 µg/mL (≈ 1.34 µM)
[1]; Staphylococcus aureus, S. aureus HAV#213, Clinical
  MIC: 0.25 µg/mL (≈ 0.334 µM)
[1]; Staphylococcus aureus, S. aureus HAV#214, Clinical
  MIC: 0.25 µg/mL (≈ 0.334 µM)
[1]; Staphylococcus aureus, S. aureus HAV#215, Clinical
  MIC: 0.25 µg/mL (≈ 0.334 µM)
[1]; Staphylococcus aureus, S. aureus HAV#216, Clinical, cfr
  MIC: > 128 µg/mL
[1]; Staphylococcus aureus, S. aureus HAV#217, cfr
  MIC: > 128 µg/mL
[1]; Staphylococcus aureus, VISA, S. aureus HAV#203, Clinical (VISA)
  MIC: > 64 µg/mL
[1]; Staphylococcus epidermidis, S. epidermidis HAV# 275 Clinical, cfr
  MIC: 32 µg/mL (≈ 42.7 µM)
[1]; Staphylococcus epidermidis, S. epidermidis HAV# 276, cfr
  MIC: > 64 µg/mL
[1]; Staphylococcus epidermidis, S. epidermidis HAV#277, Line R
  MIC: > 64 µg/mL
[1]; Staphylococcus epidermidis, S. epidermidis HAV#278 Line R
  MIC: > 64 µg/mL
[1]; Staphylococcus epidermidis, S. epidermidis HAV#279, Line R
  MIC: > 64 µg/mL
[1]; Staphylococcus haemolyticus, S. haemolyticus 5052, Line R & Methicillin R
  MIC: > 256 µg/mL
[1]; Streptococcus pneumoniae, ATCC700673, S. pneumoniae HAV#352, ATCC 700673, MDR
  MIC: > 64 µg/mL
[1]; Streptococcus pneumoniae, ATCCBAA255, S. pneumoniae HAV#354, ATCC-BAA-255
  MIC: 2 µg/mL (≈ 2.67 µM)
[1]; Streptococcus pneumoniae, ATCCBAA334, S. pneumoniae HAV#353, ATCC-BAA-334
  MIC: 1 µg/mL (≈ 1.34 µM)
[1]; Streptococcus pneumoniae, S. pneumoniae HAV#356, Clinical
  MIC: > 64 µg/mL
[1]; Streptococcus pneumoniae, S. pneumoniae HAV#358, Clinical
  MIC: 2 µg/mL (≈ 2.67 µM)
E. coli LptD
  MIC: ≤ 0.03 µg/mL
E. faecalis ATCC 29212
  MIC: 8 µg/mL (≈ 10.7 µM)
[2]
  MIC: > 64 µg/mL
K. pneumoniae ATCC 10031
  MIC: 4 µg/mL (≈ 5.34 µM)
S. aureus ATCC 29213
  MIC: 1 µg/mL (≈ 1.34 µM)
S. aureus ATCC 700699
  MIC: > 64 µg/mL
[3]
  MIC: 1 µg/mL (≈ 1.34 µM)
S. aureus MMX 3035 cErmA
  MIC: > 64 µg/mL
S. aureus hVISA
  MIC: > 64 µg/mL
S. pneumoniae ATCC 49619
  MIC: 0.125 µg/mL (≈ 0.167 µM)
S. pneumoniae ATCC 6303
  MIC: 2 µg/mL (≈ 2.67 µM)
[4]
  MIC: > 64 µg/mL
[5]
  MIC: 16 µg/mL (≈ 21.4 µM)
[6]
  MIC: > 64 µg/mL
